From patent publication US20250082612A1, “SREBP-1 INHIBITOR AND PHARMACEUTICAL COMPOSITION FOR TREATING […]” (Jichi Medical University, priority 2021, published 2025) come the findings set out here.

Data set [1] relates to H4IIEC3 cells. The data set can be described thus: Triglyceride concentration in culture solution of H4IIEC3 hepatocytes. It counts as cell-based, rat. Conditions: 2 μM in culture medium; 24 hours; relative to DMSO group. As to the method: Specifically, first, H4IIEC3 cells (1×10^5 cells/well) seeded in advance in a 48-well plate, which are a cell line of rat hepatocytes, were cultured for 1 day. Next, culture medium exchange was carried out so that a high glucose DMEM (serum-free) containing each compound (concentration in culture medium: 2 μM) or DMSO as a control was 200 μL/well, and then the cells were incubated for 24 hours. Next, the triglyceride concentration in the culture solution was measured using a Triglyceride E-Test WAKO (FUJIFILM Corporation). In FIG. 7A to FIG. 7F, the triglyceride concentration in each compound addition group was indicated as a relative percentage in a case where the triglyceride concentration in the DMSO addition group was set to 100%.

Data set [2] concerns the target T1, human SREBP-1c (Homo sapiens, UniProt P36956).
T1 construct: expressed in transfected cells
Put plainly: Gal4-SREBP-1c luciferase reporter assay in HepG2 stable expression strain. It counts as cell-based. As to conditions: EPA 100 or 300 μM, OA 300 μM, Cho 100 μM, 25HCho 30 μM in culture medium; 24 hours; vs DMSO. From the text: A pcDNA3.1 (+)-Hyg vector (manufactured by Thermo Fisher Scientific, Inc. under the brand of Invitrogen) was inserted with DNA fragments of a firefly luciferase reporter cloned from a pGL3-Basic vector (manufactured by Promega Corporation), a pSV40-Renilla luciferase reporter cloned from a pRL-SV40 vector (manufactured by Promega Corporation), and a human SREBP-1c cloned from a pTK-HSV-hSREBP-1c, whereby a vector having a structure shown in FIG. 1 was constructed. The base sequence of the vector is set forth in SEQ ID NO: 2. In FIG. 1, Gal4-BP1 is a human SREBP-1c that is obtained by fusing sequences of the Gal4-DNA binding domain and the minimal VP16-AD to the N-terminal side. 17 m8 is a DNA sequence to which the Gal4-DNA binding domain binds. CTCF is a DNA sequence that acts as an insulator, which blocks the action of transcription factors.
HepG2 cells, which are a cell line derived from human liver cancer, were cultured in advance to a confluency of 10% confluent in Dulbecco's Modified Eagle's Medium (DMEM) (containing 25 mM glucose, 100 units/mL penicillin, […] streptomycin sulfate, and 10 v/v % fetal bovine serum (FBS)) and then transfected with the vector obtained in (1) described above, by using a Lipofectamine 3000 transfection reagent (manufactured by Thermo Fisher Scientific, Inc. under the brand of Invitrogen), 5 whereby the vector was inserted into the genome. […] Next, a Reporter lysis buffer (Promega Corporation) was added to lyse the cells, and luciferase activity was measured with a luminometer.
Next, each candidate compound (concentration in culture medium: 2 or 5 μM) was added to the cell line (2×10^4 cells/well) seeded in a plurality of 384-well plates, which had been constructed in (2) described above, so that one kind of each compound was added to one well, and incubation was carried out for 24 hours. […] Next, Steady-Glo (a mixture of luciferin and a Lysis buffer) was added thereto, and then luciferase activity was measured with a luminometer. […]

Data set [3] deals with T2, human SREBP-2 (Homo sapiens, UniProt Q12772).
T2 construct: expressed in transfected cells
Put plainly: Gal4-SREBP-2 luciferase reporter assay in HepG2 stable expression strain. It counts as cell-based. As to conditions: EPA 100 or 300 μM, 25HCho 30 μM in culture medium; 24 hours; vs DMSO. From the text:
In order to exclude compounds such as cholesterol and 25-hydroxycholesterol, which have an inhibitory action on both SREBP-1 and SREBP-2, first, a vector having the structure shown in FIG. 3 was constructed using the same method as in “1.” described above, except that a DNA fragment of human SREBP-2 cloned from pTK-HSVhSREBP-2 was used instead of the DNA fragment of human SREBP-1c. The base sequence of the vector is set forth in SEQ ID NO: 3. In FIG. 3, Gal4-BP2 is a human SREBP-2 that is obtained by fusing sequences of the Gal4-DNA binding domain and the minimal VP16-AD to the N-terminal side.
a stable expression strain of HepG2, which stably expressed firefly luciferase, was established using the same method as in “1. (2)” described above, except that the vector obtained in “2. (1)” described above was used. […] Next, a Reporter lysis buffer (Promega Corporation) was added to lyse the cells, and luciferase activity was measured with a luminometer. […]
Among the 39 kinds of compounds, 23 kinds of compounds were selected by searching the PAINS database (https://www.rdkit.org/docs/source/rdkit. Chem.rdfiltercatalog.html) and excluding, from targets of interest, compounds for which non-specific action had been reported. […] It is noted that the SREBP-1 inhibition rate and the SREBP-2 inhibition rate in the reporter assay were calculated using the following method. […]

T1 sequence (P36956 with tags, fused parts or gaps isoform P36956-4 limits assumed): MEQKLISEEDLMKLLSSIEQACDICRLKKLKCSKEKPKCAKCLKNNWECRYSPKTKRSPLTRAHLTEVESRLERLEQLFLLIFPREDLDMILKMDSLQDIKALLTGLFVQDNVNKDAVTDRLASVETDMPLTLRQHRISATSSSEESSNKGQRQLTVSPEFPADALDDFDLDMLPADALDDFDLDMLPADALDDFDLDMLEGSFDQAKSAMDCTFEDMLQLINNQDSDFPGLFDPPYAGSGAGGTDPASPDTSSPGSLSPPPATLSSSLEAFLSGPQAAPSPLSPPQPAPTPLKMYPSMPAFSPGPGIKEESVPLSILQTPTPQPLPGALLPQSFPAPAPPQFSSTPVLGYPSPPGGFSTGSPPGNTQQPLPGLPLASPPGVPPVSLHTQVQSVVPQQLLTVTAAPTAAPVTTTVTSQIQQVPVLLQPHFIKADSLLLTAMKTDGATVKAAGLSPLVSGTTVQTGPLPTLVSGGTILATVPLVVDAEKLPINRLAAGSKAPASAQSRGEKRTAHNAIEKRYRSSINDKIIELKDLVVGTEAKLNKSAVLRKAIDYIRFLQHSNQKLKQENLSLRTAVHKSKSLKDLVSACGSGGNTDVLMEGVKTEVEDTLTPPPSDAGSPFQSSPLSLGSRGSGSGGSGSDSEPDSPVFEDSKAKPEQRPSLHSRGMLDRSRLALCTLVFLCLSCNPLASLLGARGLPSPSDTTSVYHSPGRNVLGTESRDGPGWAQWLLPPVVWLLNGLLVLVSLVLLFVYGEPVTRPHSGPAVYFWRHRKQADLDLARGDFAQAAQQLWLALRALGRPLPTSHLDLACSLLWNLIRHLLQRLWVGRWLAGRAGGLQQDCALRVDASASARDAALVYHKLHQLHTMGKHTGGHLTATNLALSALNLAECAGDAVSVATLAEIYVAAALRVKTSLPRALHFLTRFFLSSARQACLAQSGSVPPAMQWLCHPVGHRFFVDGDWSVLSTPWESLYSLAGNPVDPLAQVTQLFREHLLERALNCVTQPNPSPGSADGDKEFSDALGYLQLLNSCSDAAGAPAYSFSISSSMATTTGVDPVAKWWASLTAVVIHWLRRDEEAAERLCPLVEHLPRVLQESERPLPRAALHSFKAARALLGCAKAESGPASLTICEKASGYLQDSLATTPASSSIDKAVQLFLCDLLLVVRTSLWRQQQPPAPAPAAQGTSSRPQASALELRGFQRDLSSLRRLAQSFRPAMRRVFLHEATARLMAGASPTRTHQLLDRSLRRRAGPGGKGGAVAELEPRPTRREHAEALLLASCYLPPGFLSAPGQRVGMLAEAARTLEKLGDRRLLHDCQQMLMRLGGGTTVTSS
T2 sequence (Q12772 with tags, fused parts or gaps limits assumed): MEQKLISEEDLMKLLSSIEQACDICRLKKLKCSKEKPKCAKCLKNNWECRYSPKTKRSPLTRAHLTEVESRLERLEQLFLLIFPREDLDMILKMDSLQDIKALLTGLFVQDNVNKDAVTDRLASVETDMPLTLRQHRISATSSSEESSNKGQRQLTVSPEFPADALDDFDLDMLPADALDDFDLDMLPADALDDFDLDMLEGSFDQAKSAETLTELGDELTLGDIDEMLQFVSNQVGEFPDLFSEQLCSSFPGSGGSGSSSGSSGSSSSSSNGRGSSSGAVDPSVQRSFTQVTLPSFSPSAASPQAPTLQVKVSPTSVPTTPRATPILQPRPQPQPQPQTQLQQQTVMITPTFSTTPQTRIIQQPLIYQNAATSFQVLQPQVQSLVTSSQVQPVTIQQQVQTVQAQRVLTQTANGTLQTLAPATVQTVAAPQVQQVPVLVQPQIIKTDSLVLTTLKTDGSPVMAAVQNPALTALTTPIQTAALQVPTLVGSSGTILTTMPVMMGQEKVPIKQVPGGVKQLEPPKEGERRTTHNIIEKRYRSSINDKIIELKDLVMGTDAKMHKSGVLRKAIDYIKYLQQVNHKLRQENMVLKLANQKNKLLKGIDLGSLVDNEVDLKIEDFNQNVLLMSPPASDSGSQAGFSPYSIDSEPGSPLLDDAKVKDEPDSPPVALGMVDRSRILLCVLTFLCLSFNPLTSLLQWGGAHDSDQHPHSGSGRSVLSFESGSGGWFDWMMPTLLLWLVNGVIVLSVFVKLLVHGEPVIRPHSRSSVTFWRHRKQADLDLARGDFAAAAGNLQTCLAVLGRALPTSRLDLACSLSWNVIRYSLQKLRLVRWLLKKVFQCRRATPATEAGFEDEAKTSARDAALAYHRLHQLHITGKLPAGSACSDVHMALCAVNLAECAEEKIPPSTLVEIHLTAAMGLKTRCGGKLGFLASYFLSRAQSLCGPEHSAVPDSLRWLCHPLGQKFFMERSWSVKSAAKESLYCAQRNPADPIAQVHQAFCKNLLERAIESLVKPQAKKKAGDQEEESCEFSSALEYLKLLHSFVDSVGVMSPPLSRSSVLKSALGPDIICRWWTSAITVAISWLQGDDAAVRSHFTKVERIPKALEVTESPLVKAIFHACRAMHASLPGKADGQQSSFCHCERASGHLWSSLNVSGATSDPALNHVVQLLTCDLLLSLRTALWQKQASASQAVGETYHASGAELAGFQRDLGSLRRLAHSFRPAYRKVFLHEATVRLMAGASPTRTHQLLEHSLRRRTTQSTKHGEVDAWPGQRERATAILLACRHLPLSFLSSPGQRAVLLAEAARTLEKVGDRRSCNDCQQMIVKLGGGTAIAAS

Consider `CCCOc1ccccc1OC(=O)CN1C(=O)COc2ccccc21` [(5)], for which the “triglycerides in culture solution of cultured hepatocytes (FIG. 7A-7F)” value (“triglycerides in culture solution” for short) in data set [1] is recorded as “reduce triglycerides”.

In the case of `CSc1nn(-c2ccc([N+](=O)[O-])cc2)c(N)c1C(N)=O` [(6), 5-amino-3-methylsulfanyl-1-(4-nitrophenyl)pyrazole-4-carboxamide], the “triglycerides in culture solution” value in data set [1] is “reduce triglycerides”.

Consider `C=CCNc1nc(-c2ccc(N3CCCC3=O)cc2)cs1` [(11)], for which the “triglycerides in culture solution” value in data set [1] is given as “reduce triglycerides”.

For the compound `COc1ccc2c(c1)[nH]c1c(C)nccc12` [(16)], the “triglycerides in culture solution” value in data set [1] is given as “reduce triglycerides”.

For the compound `CCc1c2c(nc3ccc(O)cc13)-c1cc3c(c(=O)n1C2)COC(=O)[C@]3(O)CC` [(22a)], the “triglycerides in culture solution” value in data set [1] is “reduce triglycerides”.

In the case of `CC(C)CCC[C@@H](C)[C@H]1CC[C@H]2[C@@H]3CC=C4C[C@@H](O)CC[C@]4(C)[C@H]3CC[C@]12C` [Cho, cholesterol], the “luciferase activity (SREBP-1 reporter, FIG. 2)” value in data set [2] is “luciferase activity was reduced”.

Consider `C[C@H](CCCC(C)(C)O)[C@H]1CC[C@H]2[C@@H]3CC=C4C[C@@H](O)CC[C@]4(C)[C@H]3CC[C@]12C` [Compound 25HCho, 25-hydroxycholesterol], for which, in data set [2], the “luciferase activity (SREBP-1 reporter, FIG. 2)” value is “luciferase activity was reduced”. Further, the “luciferase activity (SREBP-2 reporter, FIG. 4)” value in data set [3] is listed as “luciferase activity was reduced”.

Turning to `CCCCCCCC/C=C\CCCCCCCC(=O)O` [OA, oleic acid], the “luciferase activity (SREBP-1 reporter, FIG. 2)” value in data set [2] was “luciferase luminescence was observed”.
